Experiment: Stability of polymorph Form II of the besylate salt
Format: physicochemical
Details: exemplary Form II polymorph, solid form
Protocol: In some embodiments, Form II of the besylate salt of compound 101 (2,4-Dichloro-N-[3,5-dichloro-4-(quinolin-3-yloxy)-phenyl]-benzenesulfonamide benzenesulfonate salt) is used. […] In some embodiments, the Form II polymorph can have a melting point between about 230 and 240° C. […] For example, particular Form II polymorphs can have major X-ray powder diffraction pattern peaks at 15, 19, 20.5, 23.5, 24.5, 25, 26.5, 29.5 and 30.5° 2θ using Cu Kα radiation. In certain embodiments, the Form II polymorph can have major X-ray powder diffraction pattern peaks at one, two, three, four, five, six, seven or eight of the X-ray powder diffraction pattern peaks at 15, 19, 20.5, 23.5, 24.5, 25, 26.5, 29.5 and 30.5° 2θ using Cu Kα radiation. In certain embodiments, the Form II polymorph of the invention can have both a melting point between about 230 and 240° C. and major X-ray powder diffraction pattern peaks at one, two, three, four, five, six, seven or eight of the X-ray powder diffraction pattern peaks at 15, 19, 20.5, 23.5, 24.5, 25, 26.5, 29.5 and 30.5° 2θ using Cu Kα radiation. In further embodiments, the Form II polymorph can have major infrared absorbance peaks at one, two, three, four, or five of the infrared absorbance peaks at 1573, 1469, 1459, 912, and 859 cm^−1.

Compound: O=S(=O)(Nc1cc(Cl)c(Oc2cnc3ccccc3c2)c(Cl)c1)c1ccc(Cl)cc1Cl.O=S(=O)(O)c1ccccc1 [2,4-Dichloro-N-[3,5-dichloro-4-(quinolin-3-yloxy)-phenyl]-benzenesulfonamide benzenesulfonate salt]
- stability of the polymorph: surprising stability

From patent publication US20110034380A1, “COMBINATION OF A SELECTIVE PPAR-GAMMA MODULATOR AND AN INCRETIN FOR THE TREATMENT OF DIABETES AND OBESITY” (priority 2009, published 2011)
